The record followed here is patent US6380226B1, “Salts of an anti-migraine indole derivatives” (Pfizer Inc, priority 1994, dated 2002).

“Also recorded” adds a separate entry of the source. Structures can show the parent of a compound that is named as a salt. Where two headings read alike, the source gives them in different places.

Holding throughout (format): physicochemical
The nature of data set [1]: Hygroscopicity study: moisture change by weight analysis and Karl Fischer titrimetry. To be noted: for colour change of sample accompanying water uptake: hygroscopicity study, 40° C./75% RH. As to the method: (§1) Hygroscopicity/Solid State Stability Studies Samples (ca 10 mg) were sieved (250 μm) and then stored at each of the following conditions of temperature (T) and relative humidity (RH) for up to 4 weeks: 30° C. at II, 75 and 90% RH and 40° C. at II, 75 and 90% RH, the required humidities being achieved using the appropriate saturated salt solution in a dessicator. Measurements of water content changes were conducted by weight analysis using a microbalance and by Karl Fischer titrimetry (KFT), and chemical and physical stability evaluation by high performance liquid chromatography (HPLC) and DSC. KFT was performed using a Mitsubishi moisturemeter and ca 10 mg of each sample.

Data set [2] in a line: Solid state stability study: chemical and physical stability by HPLC and DSC. To be noted: for solid state instability (associated with water uptake): hygroscopicity studies. As to the method: as §1, with “DSC. HPLC analyses were” for “DSC. KFT was”, “performed on” for “performed using”, “a LDC isocratic system under the following conditions: column—Novapak C18, 5μm, 15 cm; mobile phase—pH 6.0, 60:40 v/v 0.02M KH2PO4 (0.5% triethylamine): methanol; detection—UV (254 nm); flow rate—1.0 ml/min; injection volume —20 μl; sample 0.1 mg/ml in mobile phase.” for “a Mitsubishi moisturemeter and ca 10 mg of each sample.”

Data set [3] is described as follows: Polymorphic conversion by DSC. How it is done:
Samples (ca 5 mg) of each form were analysed using a Perkin-Elmer 7 Series thermal analyser at a scanning rate of 20° C. per minute. For identification of the respective endotherms, shown in the representative DSC thermograms of FIGS. 3A and 3B, vide supra. DSC was used to determine both the polymorphic conversions of the β-forms of the hydrobromide and hemisulphate salts to their respective α-forms, and also the conversion of the α-form of the hydrochloride salt to its β-form which is believed to be an anhydrate-hydrate transition.

The next data set in a line: Compression studies. To be noted: for behaviour on compression (colour change, melting, punch filming): 5 tonnes for 1 minute, 13 mm punch and die set. How it is done:
Samples (200 mg) were compressed using a bench IR press (Graseby Specac Model 15.011) at 5 tonnes for 1 minute using a 13 mm punch and die set, then assessed for colour change and evidence of melting. Further analysis (DSC and HPLC) was conducted after grinding of the compact using a mortar and pestle.

[4] abbreviates: listed as α-form of the hydrobromide salt.
[5] abbreviates: listed as α-form of the hemisulphate salt.
Where [6] appears, read: listed as β-form of the hemisulphate salt.

Turning to `CN1CCC[C@@H]1Cc1c[nH]c2ccc(CCS(=O)(=O)c3ccccc3)cc12` [α-HBr, 3-(N-Methyl-2(R)-pyrrolidinylmethyl)-5-(2-phenylsulphonylethly)-1H-indole hydrobromide, α-form], the “weight over the course of the hygroscopicity study (in words)” value in data set [1] (30 and 40° C., 11, 75 and 90% RH, up to 4 weeks) was “relatively stable weights”. Further, the “moisture change determined by % weight change” value is listed as −0.45% in data set [1] (T/RH 30/11 (30° C., 11% RH), Week 1); −0.51% in data set [1] (T/RH 30/11, Week 2); “+0.20%” in data set [1] (T/RH 30/11, Week 3); “+0.09%” in data set [1] (T/RH 30/11, Week 4); “+0.08%” in data set [1] (T/RH 30/75, Week 1); “+0.01%” in data set [1] (T/RH 30/75, Week 2). Besides, the “moisture change determined by % weight change” value is “+0.17%” in data set [1] (T/RH 30/75, Week 3); “+0.25%” in data set [1] (T/RH 30/75, Week 4); “+0.53%” in data set [1] (T/RH 30/90, Week 1); “+0.46%” in data set [1] (T/RH 30/90, Week 2); “+0.50%” in data set [1] (T/RH 30/90, Week 3); “+0.49%” in data set [1] (T/RH 30/90, Week 4). In addition, the “moisture change determined by % weight change” value is reported as −0.48% in data set [1] (T/RH 40/11, Week 1); “+0.58%” in data set [1] (T/RH 40/11, Week 2); −0.51% in data set [1] (T/RH 40/11, Week 3); −0.49% in data set [1] (T/RH 40/11, Week 4); “+0.06%” in data set [1] (T/RH 40/75, Week 1); “+0.23%” in data set [1] (T/RH 40/75, Week 2). Also, the “moisture change determined by % weight change” value in data set [1] (T/RH 40/75, Week 3) is 0.00%; in data set [1] (T/RH 40/75, Week 4), “+0.11%”; in data set [1] (T/RH 40/90, Week 1) it was “+0.87%”; in data set [1] (T/RH 40/90, Week 2) it was “+1.27%”; in data set [1] (T/RH 40/90, Week 3), “+1.16%”; in data set [1] (T/RH 40/90, Week 4) it was “+1.23%”. In data set [1] (setting [4]), the “hygroscopicity (in words)” value is given as “lack of hygroscopicity”. The “change in DSC profile” value in data set [2] (T=40° C./RH=90% samples) is “No change”. Further, in data set [2] (all of the conditions studied (30 and 40° C., 11, 75, 90% RH, up to 4 weeks)), the “chemical stability by HPLC analysis” value is given as “confirmed its stability”. Besides, the polymorphic conversion result in data set [3] (setting [4]) is given as “No polymorphic transitions”. In addition, the “behaviour on compression (colour change, melting, punch filming)” value in “Compression studies” (setting [4]) was “no evidence of a change in sample appearance or punch filming”. Further, the “changes to the thermogram (melting point, enthalpy of fusion) after compression or grinding” value in the data set “Compression studies” (DSC after compression or grinding) is on record as “no changes”.

Take `CN1CCC[C@@H]1Cc1c[nH]c2ccc(CCS(=O)(=O)c3ccccc3)cc12` [α-form of the hydrochloride salt, 3-(N-methyl-2(R)-pyrrolidinylmethyl)-5-(2-phenylsulphonylethyl)-1H-indole]: the “water uptake (in words)” value in data set [1] (T 40° C., RH 75%, seven days (1 week)) was “a significant amount of water had been taken up; also recorded: picked up a significant amount of moisture”. In addition, in data set [3], the polymorphic conversion entry is listed as “converts to the hydrated β-form; also recorded: transformation of the α-form to the β-form”. Further, the “behaviour on compression (colour change, melting, punch filming)” value in the data set “Compression studies” is recorded as “did not melt on compaction”.

`CN1CCC[C@@H]1Cc1c[nH]c2ccc(CCS(=O)(=O)c3ccccc3)cc12` [α-½H2SO4, 3-(N-methyl-2(R)-pyrrolidinylmethyl)-5-(2-phenylsulphonylethyl)-1H-indole]: the “moisture change determined by % weight change” value in data set [1] (T/RH 40/75, Week 1) is “+6.0%”; in data set [1] (T/RH 40/75, Week 2), “+4.85%”; in data set [1] (T/RH 40/75, Week 3) it was “+5.46%”; in data set [1] (T/RH 40/75, Week 4), “+4.04%”. The “colour change of sample accompanying water uptake” value in data set [1] (setting [5]) is listed as “no concomitant colour”. The “hygroscopicity (in words)” value in data set [1] (setting [5]) is on record as “extremely hygroscopic”. Further, in data set [2] (setting [5]), the “solid state instability (associated with water uptake)” value was “does not display solid state instability”.

`CN1CCC[C@@H]1Cc1c[nH]c2ccc(CCS(=O)(=O)c3ccccc3)cc12` [β-form of the hydrobromide salt]: the polymorphic conversion entry in data set [3] is reported as “undergoes polymorphic conversion to a higher melting form”.

With `CN1CCC[C@@H]1Cc1c[nH]c2ccc(CCS(=O)(=O)c3ccccc3)cc12` [β-form of the hydrochloride salt, 3-(N-methyl-2(R)-pyrrolidinylmethyl)-5-(2-phenylsulphonylethyl)-1H-indole], in data set [1] (T=40° C./RH=75%, weight change and KFT at week 4), the “hygroscopicity (in words)” value was “non-hygroscopic”. The “solid state instability (associated with water uptake)” value in data set [2] was “does not display solid state instability; also recorded: no solid state instability being detected”. Moreover, the “behaviour on compression (colour change, melting, punch filming)” value in the data set “Compression studies” is “melting and sticking of the disk to the punches were observed; also recorded: melts and causes sticking of the disk to the punches”.

For `CN1CCC[C@@H]1Cc1c[nH]c2ccc(CCS(=O)(=O)c3ccccc3)cc12` [β-½H2SO4, 3-(N-methyl-2(R)-pyrrolidinylmethyl)-5-(2-phenylsulphonylethyl)-1H-indole], the “moisture change determined by % weight change” value in data set [1] (T/RH 40/75, Week 1) is “+1.33%”; in data set [1] (T/RH 40/75, Week 2) it was “+3.79%”; in data set [1] (T/RH 40/75, Week 3), “+3.38%”; in data set [1] (T/RH 40/75, Week 4), “+1.69%”. Moreover, in data set [1] (setting [6]), the “colour change of sample accompanying water uptake” value was “change in colour of the sample from cream to yellow”. Besides, the “hygroscopicity (in words)” value in data set [1] (relative humidities (RH) higher than 50%) is “very hygroscopic”. The polymorphic conversion entry in data set [3] (setting [6]) is on record as “water uptake can cause polymorphic conversion to an alternative form; also recorded: polymorphic conversion to the α-form”. In the data set “Compression studies” (setting [6]), the “behaviour on compression (colour change, melting, punch filming)” value is “undergoes a colour change on compression and causes punch-filming during tabletting; also recorded: undergoes a colour change on compression and also causes punch filming on compaction”.
